Legend:
Assay in all cases: GFP thermal shift (GFP-TS)
Type in all cases: binding
Settings in all cases: 3 mM potassium oxalate; crude DDM-solubilised OxlT-GFPuv from E. coli membranes; 300 mM potassium acetate, pH 7.0
OxlT [1] = target: T1, OxlT (Oxalobacter formigenes, UniProt Q51330, W352A)
T1 construct: full-length; C-terminal nona-His tag from E. coli XL3 (crystal, purified); C-terminal GFPuv fusion from E. coli BL21(DE3) in DDM (GFP-TS); pRSF-OxlT for transport; monomer

OxlT [2] = target: T2, OxlT (Oxalobacter formigenes, UniProt Q51330)
T2 construct: full-length; C-terminal nona-His tag from E. coli XL3 (crystal, purified); C-terminal GFPuv fusion from E. coli BL21(DE3) in DDM (GFP-TS); pRSF-OxlT for transport; monomer
T2 sequence (Q51330 1-418): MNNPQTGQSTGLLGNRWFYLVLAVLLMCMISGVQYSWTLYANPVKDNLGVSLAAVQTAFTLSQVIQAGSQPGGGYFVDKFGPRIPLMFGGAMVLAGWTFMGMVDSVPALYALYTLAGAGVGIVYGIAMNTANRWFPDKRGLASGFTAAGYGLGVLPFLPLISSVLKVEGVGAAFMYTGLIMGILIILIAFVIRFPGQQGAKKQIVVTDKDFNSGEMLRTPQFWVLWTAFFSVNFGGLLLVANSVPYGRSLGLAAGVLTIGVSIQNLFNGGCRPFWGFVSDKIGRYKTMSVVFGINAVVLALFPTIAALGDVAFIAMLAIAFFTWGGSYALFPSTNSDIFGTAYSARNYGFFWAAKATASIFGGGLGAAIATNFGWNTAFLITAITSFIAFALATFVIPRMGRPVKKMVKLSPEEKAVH

OxlT [3] = target: T3, OxlT (Oxalobacter formigenes, UniProt Q51330, K355Q)
T3 construct: full-length; C-terminal nona-His tag from E. coli XL3 (crystal, purified); C-terminal GFPuv fusion from E. coli BL21(DE3) in DDM (GFP-TS); pRSF-OxlT for transport; monomer
T3 sequence (Q51330 whole entry K355Q, the tested form may be a part): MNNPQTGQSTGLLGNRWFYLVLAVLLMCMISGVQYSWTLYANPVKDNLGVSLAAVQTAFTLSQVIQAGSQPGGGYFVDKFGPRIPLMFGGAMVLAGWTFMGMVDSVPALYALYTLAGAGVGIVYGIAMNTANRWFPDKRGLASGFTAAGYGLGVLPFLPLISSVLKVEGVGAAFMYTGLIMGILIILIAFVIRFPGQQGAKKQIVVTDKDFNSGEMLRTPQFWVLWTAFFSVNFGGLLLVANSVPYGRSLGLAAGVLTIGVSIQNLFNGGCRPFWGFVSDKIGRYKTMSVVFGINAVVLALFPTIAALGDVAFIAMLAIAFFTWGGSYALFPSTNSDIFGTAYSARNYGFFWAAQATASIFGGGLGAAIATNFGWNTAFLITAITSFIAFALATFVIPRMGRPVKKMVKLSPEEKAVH

OxlT [4] = target: T4, OxlT (Oxalobacter formigenes, UniProt Q51330, Q34A)
T4 construct: full-length; C-terminal nona-His tag from E. coli XL3 (crystal, purified); C-terminal GFPuv fusion from E. coli BL21(DE3) in DDM (GFP-TS); pRSF-OxlT for transport; monomer
T4 sequence (Q51330 whole entry Q34A, the tested form may be a part): as the sequence (Q51330 whole entry K355Q, the tested form may be a part) above, with Q34A, Q355K counted along it

OxlT [5] = target: T5, OxlT (Oxalobacter formigenes, UniProt Q51330, Y124A)
T5 construct: full-length; C-terminal nona-His tag from E. coli XL3 (crystal, purified); C-terminal GFPuv fusion from E. coli BL21(DE3) in DDM (GFP-TS); pRSF-OxlT for transport; monomer
T5 sequence (Q51330 whole entry Y124A, the tested form may be a part): as the sequence (Q51330 whole entry K355Q, the tested form may be a part) above, with Y124A, Q355K counted along it

OxlT [6] = target: T6, OxlT (Oxalobacter formigenes, UniProt Q51330, Y328A)
T6 construct: full-length; C-terminal nona-His tag from E. coli XL3 (crystal, purified); C-terminal GFPuv fusion from E. coli BL21(DE3) in DDM (GFP-TS); pRSF-OxlT for transport; monomer
T6 sequence (Q51330 whole entry Y328A, the tested form may be a part): as the sequence (Q51330 whole entry K355Q, the tested form may be a part) above, with Y328A, Q355K counted along it

OxlT [7] = target: T7, OxlT (Oxalobacter formigenes, UniProt Q51330, R272A)
T7 construct: full-length; C-terminal nona-His tag from E. coli XL3 (crystal, purified); C-terminal GFPuv fusion from E. coli BL21(DE3) in DDM (GFP-TS); pRSF-OxlT for transport; monomer
T7 sequence (Q51330 whole entry R272A, the tested form may be a part): as the sequence (Q51330 whole entry K355Q, the tested form may be a part) above, with R272A, Q355K counted along it

OxlT [8] = target: T8, OxlT (Oxalobacter formigenes, UniProt Q51330, Y35A)
T8 construct: full-length; C-terminal nona-His tag from E. coli XL3 (crystal, purified); C-terminal GFPuv fusion from E. coli BL21(DE3) in DDM (GFP-TS); pRSF-OxlT for transport; monomer
T8 sequence (Q51330 whole entry Y35A, the tested form may be a part): as the sequence (Q51330 whole entry K355Q, the tested form may be a part) above, with Y35A, Q355K counted along it

OxlT [9] = target: T9, OxlT (Oxalobacter formigenes, UniProt Q51330, W324A)
T9 construct: full-length; C-terminal nona-His tag from E. coli XL3 (crystal, purified); C-terminal GFPuv fusion from E. coli BL21(DE3) in DDM (GFP-TS); pRSF-OxlT for transport; monomer
T9 sequence (Q51330 whole entry W324A, the tested form may be a part): as the sequence (Q51330 whole entry K355Q, the tested form may be a part) above, with W324A, Q355K counted along it

OxlT [10] = target: T10, OxlT (Oxalobacter formigenes, UniProt Q51330, Y150A)
T10 construct: full-length; C-terminal nona-His tag from E. coli XL3 (crystal, purified); C-terminal GFPuv fusion from E. coli BL21(DE3) in DDM (GFP-TS); pRSF-OxlT for transport; monomer
T10 sequence (Q51330 whole entry Y150A, the tested form may be a part): as the sequence (Q51330 whole entry K355Q, the tested form may be a part) above, with Y150A, Q355K counted along it

OxlT [11] = target: T11, OxlT (Oxalobacter formigenes, UniProt Q51330, N268A)
T11 construct: full-length; C-terminal nona-His tag from E. coli XL3 (crystal, purified); C-terminal GFPuv fusion from E. coli BL21(DE3) in DDM (GFP-TS); pRSF-OxlT for transport; monomer
T11 sequence (Q51330 whole entry N268A, the tested form may be a part): as the sequence (Q51330 whole entry K355Q, the tested form may be a part) above, with N268A, Q355K counted along it

T1 sequence (Q51330 whole entry W352A, the tested form may be a part): as the sequence (Q51330 whole entry K355Q, the tested form may be a part) above, with W352A, Q355K counted along it

O=C(O)C(=O)O [oxalate]
dTm (OxlT [1]): Y328A and W352A showed similar oxalate binding but reduced oxalate uptake activities | dTm (OxlT [2]): In the GFP-TS assay, wild-type OxlT exhibited thermal stabilisation upon oxalate binding. | dTm (OxlT [3]): reduced in the mutant OxlT proteins Q34A, Y35A, Y124A, Y150A, N268A, R272A, W324A and K355Q | dTm (OxlT [4]): reduced in the mutant OxlT proteins Q34A, Y35A, Y124A, Y150A, N268A, R272A, W324A and K355Q | dTm (OxlT [5]): reduced in the mutant OxlT proteins Q34A, Y35A, Y124A, Y150A, N268A, R272A, W324A and K355Q | dTm (OxlT [6]): Y328A and W352A showed similar oxalate binding but reduced oxalate uptake activities | dTm (OxlT [7]): reduced in the mutant OxlT proteins Q34A, Y35A, Y124A, Y150A, N268A, R272A, W324A and K355Q | dTm (OxlT [8]): reduced in the mutant OxlT proteins Q34A, Y35A, Y124A, Y150A, N268A, R272A, W324A and K355Q | dTm (OxlT [9]): reduced in the mutant OxlT proteins Q34A, Y35A, Y124A, Y150A, N268A, R272A, W324A and K355Q | dTm (OxlT [10]): reduced in the mutant OxlT proteins Q34A, Y35A, Y124A, Y150A, N268A, R272A, W324A and K355Q | dTm (OxlT [11]): reduced in the mutant OxlT proteins Q34A, Y35A, Y124A, Y150A, N268A, R272A, W324A and K355Q

From paper PMC10070484, “Structure and mechanism of oxalate transporter OxlT in an oxalate-degrading bacterium in the gut microbiota” (Nature Communications, 2023)
